Measured values as given in PubChem BioAssay AID248 (DTP/NCI, 2004).
“And” between values parts separate entries of the source, which are not always exact repeats. Equal entries are not always repeated. Toxic doses and inconclusive results are not listed. No stated cut-off is given here; in the data, active means T/C of 150% or more; inactive means T/C below 125%.

Tested on: L1210 leukemia ip in BDF1 mice, survival T/C
Assay: NCI In Vivo Anticancer Drug Screen. Data for tumor model L1210 Leukemia (intraperitoneal) in B6D2F1 (BDF1) mice
Conditions: endpoint: mean survival time, higher = longer survival
Summary of the method: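 Antitumor effect is assessed in tumor-bearing animals. Survival in the compound arm is compared with a vehicle-dosed control arm and expressed as their quotient.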

[1] = dose: 100.0 mg/kg/injection, schedule: Q01DX009 (ip), vehicle: other
[2] = dose: 100.0 mg/kg/injection, schedule: Q04DX003 (ip), vehicle: saline with Tween-80
[3] = dose: 200.0 mg/kg/injection, schedule: Q04DX003 (ip), vehicle: saline with Tween-80
[4] = dose: 400.0 mg/kg/injection, schedule: Q04DX003 (ip), vehicle: saline with Tween-80
[5] = dose: 100.0 mg/kg/injection, schedule: Q01DX001 (ip), vehicle: saline
[6] = dose: 200.0 mg/kg/injection, schedule: Q01DX001 (ip), vehicle: saline
[7] = dose: 100.0 mg/kg/injection, schedule: Q01DX009 (ip), vehicle: saline with Tween-80
[8] = dose: 200.0 mg/kg/injection, schedule: Q01DX009 (ip), vehicle: saline with Tween-80
[9] = dose: 400.0 mg/kg/injection, schedule: Q01DX009 (ip), vehicle: saline with Tween-80
[10] = dose: 100.0 mg/kg/injection, schedule: Q04DX002 (ip), vehicle: Klucel (hydroxypropylcellulose) (HPC)
[11] = dose: 200.0 mg/kg/injection, schedule: Q04DX002 (ip), vehicle: Klucel (hydroxypropylcellulose) (HPC)
[12] = dose: 400.0 mg/kg/injection, schedule: Q04DX002 (ip), vehicle: Klucel (hydroxypropylcellulose) (HPC)
[13] = dose: 100.0 mg/kg/injection, schedule: Q01DX009 (ip), vehicle: Klucel (hydroxypropylcellulose) (HPC)
[14] = dose: 100.0 mg/kg/injection, schedule: Q04DX003 (ip), vehicle: Klucel (hydroxypropylcellulose) (HPC)
[15] = dose: 200.0 mg/kg/injection, schedule: Q01DX009 (ip), vehicle: Klucel (hydroxypropylcellulose) (HPC)
[16] = dose: 200.0 mg/kg/injection, schedule: Q04DX003 (ip), vehicle: Klucel (hydroxypropylcellulose) (HPC)
[17] = dose: 400.0 mg/kg/injection, schedule: Q01DX009 (ip), vehicle: Klucel (hydroxypropylcellulose) (HPC)
[18] = dose: 400.0 mg/kg/injection, schedule: Q04DX003 (ip), vehicle: Klucel (hydroxypropylcellulose) (HPC)
[19] = dose: 12.5 mg/kg/injection, schedule: Q01DX009 (ip), vehicle: saline with Tween-80

Measured: T/C

CCC(C)(C)c1ccc(Oc2ccccc2)c(N)c1
inactive: [1] 88 % of control | [2] 104 % of control | dose: 200.0 mg/kg/injection, schedule: Q01DX009 (ip), vehicle: other 100 % of control | [3] 100 % of control | [4] 98 % of control

O=c1nc2n(CC(O)C(O)C(O)CO)c3ccccc3cc-2c(=O)[nH]1 (centres undefined)
inactive: [5] 90 % of control | [6] 90 % of control | dose: 400.0 mg/kg/injection, schedule: Q01DX001 (ip), vehicle: saline 93 % of control

Cc1[nH]c2ccc(N(C)C)cc2c(=O)c1Cc1c(C)[nH]c2ccc(N(C)C)cc2c1=O
inactive: [7] 94 % of control | [8] 95 % of control | [9] 92 % of control

COc1cc(Cl)ccc1NC(=S)Nc1ccccc1
inactive: [10] 97 % of control | [11] 101 % of control | [12] 97 % of control

CC1=NC(=NC(=O)c2ccccc2)N=C1
inactive: [2] 97 % of control | [3] 96 % of control | [4] 96 % of control

O=C1CCCCCCC12CCCCC2
inactive: [13] 88 % of control | [14] 102 % of control | [15] 98 % of control | [16] 95 % of control | [17] 98 % of control | [18] 91 % of control

Cc1cc(C)c(NC(=O)Cc2ccccc2)cc1C
inactive: [10] 96 % of control | [11] 96 % of control | [12] 89 % of control

CC(C)N(C(=O)COc1ccc(Cl)cc1Cl)c1ccccc1
inactive: [7] 102 % of control | [2] 96 % of control | [8] 106 % of control | [3] 96 % of control | [9] 124 % of control | [4] 91 % of control

C/C=C/C=C\COC(=O)C(C)Cl (centres undefined)
inactive: dose: 100.0 mg/kg/injection, schedule: Q04DX002 (ip), vehicle: saline 108 % of control | dose: 200.0 mg/kg/injection, schedule: Q04DX002 (ip), vehicle: saline 103 % of control | dose: 400.0 mg/kg/injection, schedule: Q04DX002 (ip), vehicle: saline 108 % of control

CC(=O)Nc1ccc(NC(=O)C2CC2)cc1
inactive: [13] 95 % of control | [15] 109 % of control | [17] 104 % of control

Cc1ccccc1N=Cc1ccc2c(c1)OCO2
inactive: dose: 50.0 mg/kg/injection, schedule: Q01DX009 (ip), vehicle: Klucel (hydroxypropylcellulose) (HPC) 106 % of control | [13] 96 % of control | [14] 98 % of control | [15] 106 % of control | [16] 89 % of control | [18] 110 % of control

O=C(CCl)Nc1cc(Cl)c(Cl)cc1Cl
inactive: [2] 97 % of control | [3] 97 % of control | [4] 106 % of control

O=C(NCC(O)CNC(=O)Nc1ccc(C2=NCCCN2)cc1)Nc1ccc(C2=NCCCN2)cc1
inactive: dose: 1.25 mg/kg/injection, schedule: Q01DX Z (ip), vehicle: carboxymethylcellulose (CMC) 98 % of control | dose: 2.5 mg/kg/injection, schedule: Q01DX Z (ip), vehicle: carboxymethylcellulose (CMC) 101 % of control | dose: 5.0 mg/kg/injection, schedule: Q01DX Z (ip), vehicle: carboxymethylcellulose (CMC) 90 % of control | dose: 10.0 mg/kg/injection, schedule: Q01DX Z (ip), vehicle: carboxymethylcellulose (CMC) 97 % of control and 106 % of control | dose: 20.0 mg/kg/injection, schedule: Q01DX Z (ip), vehicle: carboxymethylcellulose (CMC) 104 % of control

Cc1ccc(-n2ccnc2)c(N=Cc2ccc(N(CCCl)CCCl)cc2F)c1
inactive: [10] 98 % of control | [11] 106 % of control | [12] 106 % of control

CC(C)(C)OOC(=O)C1(F)CC1(c1ccccc1)c1ccccc1 (centres undefined)
inactive: dose: 50.0 mg/kg/injection, schedule: Q01DX001 (ip), vehicle: Klucel (hydroxypropylcellulose) (HPC) 100 % of control | dose: 100.0 mg/kg/injection, schedule: Q01DX001 (ip), vehicle: Klucel (hydroxypropylcellulose) (HPC) 100 % of control | dose: 200.0 mg/kg/injection, schedule: Q01DX001 (ip), vehicle: Klucel (hydroxypropylcellulose) (HPC) 109 % of control

CN(C)N=Nc1ccc(C(=N)N)cc1
inactive: dose: 100.0 mg/kg/injection, schedule: Q01DX001 (ip), vehicle: acid diluted with saline 105 % of control

Clc1ccc(C#Cc2ccc(Cl)cc2)cc1
inactive: dose: 6.25 mg/kg/injection, schedule: Q01DX009 (ip), vehicle: saline with Tween-80 103 % of control | [19] 103 % of control

CCCCCCCCCCCCCOc1ccc(Sc2ccc([N+](=O)[O-])cc2)cc1
inactive: [18] 88 % of control

CS(=O)(=O)c1ccc(/C=C2/C=Cc3ccccc32)cc1
inactive: [13] 95 % of control | [14] 96 % of control | [15] 103 % of control | [16] 96 % of control | [17] 95 % of control | [18] 98 % of control

O=C(O)C(Cc1ccccc1)C(=O)O.[NH2-].[NH2-].[Pt+2]
inactive: dose: 25.0 mg/kg/injection, schedule: Q04DX003 (ip), vehicle: Klucel (hydroxypropylcellulose) (HPC) 102 % of control | dose: 50.0 mg/kg/injection, schedule: Q04DX003 (ip), vehicle: Klucel (hydroxypropylcellulose) (HPC) 98 % of control | [14] 119 % of control | [16] 104 % of control

c1ccc2cc3c(cc2c1)Nc1ccncc1N3
inactive: [19] 106 % of control | dose: 25.0 mg/kg/injection, schedule: Q01DX009 (ip), vehicle: saline with Tween-80 103 % of control | dose: 50.0 mg/kg/injection, schedule: Q01DX009 (ip), vehicle: saline with Tween-80 100 % of control

CCCCCCCCCCCCCCCCOB(OCCCCCCCCCCCCCCCC)OCCCCCCCCCCCCCCCC
inactive: [14] 91 % of control | [16] 96 % of control | [18] 94 % of control

O=C(CC(O)(C(F)(F)F)C(F)(F)F)c1ccc(C(=O)CC(O)(C(F)(F)F)C(F)(F)F)cc1
inactive: dose: 50.0 mg/kg/injection, schedule: Q01DX009 (ip), vehicle: other 108 % of control | [1] 97 % of control

CC1CC(=O)Oc2ccc(C(C)(C)C)cc21 (centres undefined)
inactive: dose: 100.0 mg/kg/injection, schedule: Q01DX001 (ip), vehicle: saline with Tween-80 95 % of control | dose: 200.0 mg/kg/injection, schedule: Q01DX001 (ip), vehicle: saline with Tween-80 91 % of control | dose: 400.0 mg/kg/injection, schedule: Q01DX001 (ip), vehicle: saline with Tween-80 95 % of control

CCOC(=O)C1CC(C)c2[nH]c3ccccc3c21 (centres undefined)
inactive: [10] 110 % of control | [11] 107 % of control | [12] 89 % of control

CCOC(=O)CC(C(=O)OCC)C(OCC)OCC (centres undefined)
inactive: dose: 100.0 mg/kg/injection, schedule: Q04DX003 (ip), vehicle: saline 104 % of control | dose: 200.0 mg/kg/injection, schedule: Q04DX003 (ip), vehicle: saline 106 % of control | dose: 400.0 mg/kg/injection, schedule: Q04DX003 (ip), vehicle: saline 111 % of control

O=C(O)C(=O)c1ccc(O)cc1O
inactive: [5] 111 % of control | [6] 103 % of control

COc1ccc(C=Nc2cc([N+](=O)[O-])ccc2O)cc1
inactive: dose: 100.0 mg/kg/injection, schedule: Q01DX001 (ip), vehicle: carboxymethylcellulose (CMC) 98 % of control | dose: 200.0 mg/kg/injection, schedule: Q01DX001 (ip), vehicle: carboxymethylcellulose (CMC) 98 % of control | dose: 400.0 mg/kg/injection, schedule: Q01DX001 (ip), vehicle: carboxymethylcellulose (CMC) 94 % of control
